Laboratory results from PubChem BioAssay AID1918931 (Molecular Pharmacology Branch, DTP, NCI, 2023).
Where “and” joins values, the source holds several entries; their conditions need not be identical. Equal entries are not always repeated.

Tested on: 138582-337-R-J1-PDC complex spheroid viability
Assay: Anticancer human tumor 138582-337-R-J1-PDC patient-derived Merkel cell tumor cell line growth inhibition
Conditions: for viability, T/C: stronger effect = lower value
How it was run: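 Multicellular complex spheroids of tumor cells with human endothelial cells (HUVEC) and mesenchymal stem cells; the LSD1 inhibitor iadademstat was combined with standard-of-care or investigational agents. Top concentration at or near clinical Cmax, half-log dilutions; final DMSO ≤0.25%.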

[1] = curve of first compound, second compound 0.1 µM
[2] = curve of first compound, second compound 0.316 µM
[3] = curve of first compound, second compound 1 µM
[4] = curve of first compound, second compound 3.16 µM
[5] = curve of first compound, second compound 10 µM
[6] = second compound 0.1 µM, first compound 0.00949 µM
[7] = second compound 0.1 µM, first compound 0.03 µM
[8] = second compound 0.1 µM, first compound 0.0949 µM
[9] = second compound 0.1 µM, first compound 0.3 µM
[10] = second compound 0.316 µM, first compound 0.00949 µM
[11] = second compound 0.316 µM, first compound 0.03 µM
[12] = second compound 0.316 µM, first compound 0.0949 µM
[13] = second compound 0.316 µM, first compound 0.3 µM
[14] = second compound 1 µM, first compound 0.00949 µM
[15] = second compound 1 µM, first compound 0.03 µM
[16] = second compound 1 µM, first compound 0.0949 µM
[17] = second compound 1 µM, first compound 0.3 µM
[18] = second compound 3.16 µM, first compound 0.00949 µM
[19] = second compound 3.16 µM, first compound 0.03 µM
[20] = second compound 3.16 µM, first compound 0.0949 µM
[21] = second compound 3.16 µM, first compound 0.3 µM
[22] = second compound 10 µM, first compound 0.00949 µM
[23] = second compound 10 µM, first compound 0.03 µM
[24] = second compound 10 µM, first compound 0.0949 µM
[25] = second compound 10 µM, first compound 0.3 µM
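Also: spheroids exposed to agents for 7 days.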
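For viability, T/C in this document: 100% = DMSO vehicle control viability.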

CC(C)CC(NC(=O)CNC(=O)c1cc(Cl)ccc1Cl)B1OC(=O)CC(CC(=O)O)(C(=O)O)O1 (configuration not stated) + NC1CCC(NC2CC2c2ccccc2)CC1
IC50 [1]: 8.89 nM
IC50 [2]: 8.97 nM
IC50 [3]: 10 nM
IC50 [4]: 8.03 nM
IC50 [5]: 8.49 nM
viability, T/C (second compound 0.1 µM, first compound 0.000316 µM): 101%
viability, T/C (second compound 0.1 µM, first compound 0.001 µM): 129%
viability, T/C (second compound 0.1 µM, first compound 0.00316 µM): 124%
viability, T/C (second compound 0.1 µM, first compound 0.01 µM): 42.3%
viability, T/C (second compound 0.1 µM, first compound 0.0316 µM): 6.66%
viability, T/C (second compound 0.1 µM, first compound 0.1 µM): 0.46%
viability, T/C (second compound 0.316 µM, first compound 0.000316 µM): 109%
viability, T/C (second compound 0.316 µM, first compound 0.001 µM): 129%
viability, T/C (second compound 0.316 µM, first compound 0.00316 µM): 115%
viability, T/C (second compound 0.316 µM, first compound 0.01 µM): 42.9%
viability, T/C (second compound 0.316 µM, first compound 0.0316 µM): 11.4%
viability, T/C (second compound 0.316 µM, first compound 0.1 µM): 0.49%
viability, T/C (second compound 1 µM, first compound 0.000316 µM): 94.4%
viability, T/C (second compound 1 µM, first compound 0.001 µM): 115%
viability, T/C (second compound 1 µM, first compound 0.00316 µM): 120%
viability, T/C (second compound 1 µM, first compound 0.01 µM): 50.1%
viability, T/C (second compound 1 µM, first compound 0.0316 µM): 7.89%
viability, T/C (second compound 1 µM, first compound 0.1 µM): 0.25%
viability, T/C (second compound 3.16 µM, first compound 0.000316 µM): 104%
viability, T/C (second compound 3.16 µM, first compound 0.001 µM): 98.8%
viability, T/C (second compound 3.16 µM, first compound 0.00316 µM): 112%
viability, T/C (second compound 3.16 µM, first compound 0.01 µM): 37.1%
viability, T/C (second compound 3.16 µM, first compound 0.0316 µM): 9.88%
viability, T/C (second compound 3.16 µM, first compound 0.1 µM): 0.47%
viability, T/C (second compound 10 µM, first compound 0.000316 µM): 89.8%
viability, T/C (second compound 10 µM, first compound 0.001 µM): 105%
viability, T/C (second compound 10 µM, first compound 0.00316 µM): 101%
viability, T/C (second compound 10 µM, first compound 0.01 µM): 42%
viability, T/C (second compound 10 µM, first compound 0.0316 µM): 7.38%
viability, T/C (second compound 10 µM, first compound 0.1 µM): 0.96%

COc1cc(C2c3cc4c(cc3C(OC3OC5COC(C)OC5C(O)C3O)C3COC(=O)C23)OCO4)cc(OC)c1O (configuration not stated) + NC1CCC(NC2CC2c2ccccc2)CC1
IC50 [1]: > 3000 nM
IC50 [2]: > 3000 nM
IC50 [3]: > 3000 nM
IC50 [4]: > 3000 nM
IC50 [5]: > 3000 nM
viability, T/C [6]: 105%
viability, T/C [7]: 89.8%
viability, T/C [8]: 67.3%
viability, T/C [9]: 69.4%
viability, T/C (second compound 0.1 µM, first compound 0.949 µM): 70.3%
viability, T/C (second compound 0.1 µM, first compound 3 µM): 66.4%
viability, T/C [10]: 102%
viability, T/C [11]: 76.3%
viability, T/C [12]: 85.4%
viability, T/C [13]: 85.8%
viability, T/C (second compound 0.316 µM, first compound 0.949 µM): 74%
viability, T/C (second compound 0.316 µM, first compound 3 µM): 60.7%
viability, T/C [14]: 90.8%
viability, T/C [15]: 95.3%
viability, T/C [16]: 76%
viability, T/C [17]: 68.7%
viability, T/C (second compound 1 µM, first compound 0.949 µM): 94.1%
viability, T/C (second compound 1 µM, first compound 3 µM): 85.2%
viability, T/C [18]: 82.6%
viability, T/C [19]: 87.3%
viability, T/C [20]: 85.1%
viability, T/C [21]: 71.6%
viability, T/C (second compound 3.16 µM, first compound 0.949 µM): 69.1%
viability, T/C (second compound 3.16 µM, first compound 3 µM): 95.3%
viability, T/C [22]: 73.8%
viability, T/C [23]: 81.6%
viability, T/C [24]: 75.3%
viability, T/C [25]: 82%
viability, T/C (second compound 10 µM, first compound 0.949 µM): 65.5%
viability, T/C (second compound 10 µM, first compound 3 µM): 56.7%

Nc1ccn(C2OC(CO)C(O)C2(F)F)c(=O)n1 (configuration not stated) + NC1CC1c1ccc(-c2cccc(O)c2)cc1
IC50 [1]: > 300 nM
IC50 [2]: > 300 nM
IC50 [3]: > 300 nM
IC50 [4]: > 300 nM
IC50 [5]: > 300 nM
viability, T/C (second compound 0.1 µM, first compound 0.000949 µM): 75.3%
viability, T/C (second compound 0.1 µM, first compound 0.003 µM): 69.9%
viability, T/C [6]: 86.8%
viability, T/C [7]: 59%
viability, T/C [8]: 56%
viability, T/C [9]: 58.3%
viability, T/C (second compound 0.316 µM, first compound 0.000949 µM): 62.5%
viability, T/C (second compound 0.316 µM, first compound 0.003 µM): 83.7%
viability, T/C [10]: 73.7%
viability, T/C [11]: 64.6%
viability, T/C [12]: 64.6%
viability, T/C [13]: 67.9%
viability, T/C (second compound 1 µM, first compound 0.000949 µM): 77.1%
viability, T/C (second compound 1 µM, first compound 0.003 µM): 79.7%
viability, T/C [14]: 79.5%
viability, T/C [15]: 72.8%
viability, T/C [16]: 66.7%
viability, T/C [17]: 57.6%
viability, T/C (second compound 3.16 µM, first compound 0.000949 µM): 74.4%
viability, T/C (second compound 3.16 µM, first compound 0.003 µM): 75.7%
viability, T/C [18]: 83.7%
viability, T/C [19]: 74.1%
viability, T/C [20]: 67.6%
viability, T/C [21]: 85%
viability, T/C (second compound 10 µM, first compound 0.000949 µM): 93.5%
viability, T/C (second compound 10 µM, first compound 0.003 µM): 79%
viability, T/C [22]: 99.7%
viability, T/C [23]: 73.5%
viability, T/C [24]: 70.3%
viability, T/C [25]: 86.8%

Nc1ccccc1NC(=O)c1ccc(CNC(=O)OCc2cccnc2)cc1
viability, T/C (compound 0.00949 µM): 96.2% and 67%
viability, T/C (compound 0.03 µM): 93.9% and 66.7%
viability, T/C (compound 0.0949 µM): 86.3% and 61.3%
viability, T/C (compound 0.3 µM): 80.7% and 49.9%
viability, T/C (compound 0.949 µM): 61.3% and 13.2%
viability, T/C (compound 3 µM): 4.61% and 0.47%
IC50 (curve of compound): 1160 nM and 279 nM
